The text below walks through data of patent US9730871B2, “Antiperspirant/deodorant cosmetic compositions” (Colgate-Palmolive Company, priority 2012, dated 2017).

The subject of the test is staphylococcus hemolyticus. Briefly: Growth of underarm bacteria on agar plates coated with stick formulation, colony count. It counts as cell-based. Particulars: for Bacteria count: 37° C., 16 hours, 0% control count 172; for Effect on growth / colony formation of staphylococcus hemolyticus (in words): sticks with 5-15% lauric acid coated on agar. How it is done: Four simplified stick compositions, each comprising 20% stearyl alcohol gellant and 0%, 5%, 10% and 15% lauric acid, respectively, were prepared. Stearyl alcohol is not considered to be an antibacterial agent. The remainder of each stick consisted of C12-C15 alkyl benzoates, which are synthetic emollients with no antibacterial activity.
A thin layer of each formulation was coated onto an agar plate, by moving the stick across the surface of the plate. A solution of staphylococcus hemolyticus bacteria at 0.1 optical density as measured by UV spectroscopy was diluted by a factor of 40. […] of the bacterial solution was then applied to the agar plate. The plate was incubated at 37° C. for 16 hours. The number of colonies formed on each plate was then recorded.

As for `CCCCCCCCCCCC(=O)O` [Laurie acid, lauric acid], the “Effect on growth / colony formation of staphylococcus hemolyticus (in words)” value is “inhibit the growth”. Further, the Bacteria count (5% lauric acid in stick with 20% stearyl alcohol and C12-C15 alkyl benzoates) was 120. For the same molecule, the Bacteria count (10% lauric acid in stick with 20% stearyl alcohol and C12-C15 alkyl benzoates) is 102. Also, the Bacteria count (15% lauric acid in stick with 20% stearyl alcohol and C12-C15 alkyl benzoates) is 49. Besides, the “Effect on growth / colony formation of staphylococcus hemolyticus (in words)” value (listed as lauric acid) is “reduction on the number of bacterial colonies formed”.
